Patent US8999942B2, “Polyol modified aminoglycoside-lipid conjugates” (University of Manitoba, priority 2010, dated 2015)

How the values were obtained:
[1] = test system: S. aureus ATCC 29213; experiment: MIC, broth macrodilution (CLSI), S. aureus ATCC 29213; type: cell-based, Staphylococcus aureus
Protocol: (§1) All compounds were tested against American Type Culture Collection (ATCC) reference strains as well as clinical isolates from the Canadian Intensive Care Unit (CAN-ICU) study (Zhanel, et al., 2008). […] Antibacterial activity against Gram-positive and Gram-negative microorganisms was performed via broth macrodilution tests using CLSI methodology (Clinical and Laboratory Standards Institute, 2006). The minimum inhibitory concentration (MIC) in μg/mL of the aminoglycoside-derived amphiphilic polycarbamates and polyethers were determined using established methods (Clinical and Laboratory Standards Institute, 2006) and are shown in Tables 1 and 2, respectively.

[2] = test system: methicillin-resistant Staphylococcus aureus (MRSA) ATCC 33592; experiment: MIC, broth macrodilution (CLSI), MRSA ATCC 33592; type: cell-based; settings: MRSA, methicillin-resistant S. aureus ATCC 33592
Protocol: as §1

[3] = test system: S. epidermidis ATCC 14990; experiment: MIC, broth macrodilution (CLSI), S. epidermidis; type: cell-based, Staphylococcus epidermidis; settings: footnote ATCC 1490
Protocol: as §1

[4] = test system: methicillin-resistant Staphylococcus epidermidis (MRSE) CAN-ICU 61589; experiment: MIC, broth macrodilution (CLSI), MRSE; type: cell-based; settings: methicillin-resistant S. epidermidis, footnote (ATCC 14990)
Protocol: as §1

[5] = test system: Streptococcus pneumoniae ATCC 49619; experiment: MIC, broth macrodilution (CLSI), S. pneumoniae ATCC 49619; type: cell-based
Protocol: as §1

[6] = test system: E. coli ATCC 25922; experiment: MIC, broth macrodilution (CLSI), E. coli ATCC 25922; type: cell-based
Protocol: as §1

[7] = test system: E. coli (Gentamicin-resistant) CAN-ICU 61714; experiment: MIC, broth macrodilution (CLSI), gentamicin-resistant E. coli; type: cell-based; settings: footnote ATCC 6174 (gentamicin resistant)
Protocol: as §1

[8] = test system: E. coli (Amikacin MIC 32) CAN-ICU 63074; experiment: MIC, broth macrodilution (CLSI), E. coli CAN-ICU 63074; type: cell-based
Protocol: as §1

[9] = test system: Pseudomonas aeruginosa ATCC 27853; experiment: MIC, broth macrodilution (CLSI), P. aeruginosa ATCC 27853; type: cell-based
Protocol: as §1

[10] = test system: P. aeruginosa (Gent-R) CAN-ICU 62308; experiment: MIC, broth macrodilution (CLSI), P. aeruginosa CAN-ICU 62308; type: cell-based, Pseudomonas aeruginosa
Protocol: as §1

[11] = test system: Stenotrophomonas maltophilia (CAN-ICU 62585); experiment: MIC, broth macrodilution (CLSI), S. maltophilia; type: cell-based; settings: S. maltophilia, footnote CAN-ICU 62584
Protocol: as §1

[12] = test system: Acinetobacter baumanni (CAN-ICU 63169); experiment: MIC, broth macrodilution (CLSI), A. baumannii; type: cell-based; settings: A. baumannii CAN-ICU 63169
Protocol: as §1

[13] = test system: S. pneumoniae ATCC 13883; experiment: MIC, broth macrodilution (CLSI), S. pneumoniae ATCC 13883; type: cell-based
Protocol: as §1

Compound | Minimal Inhibitory Concentration (MIC) [1] [µg/mL] | Minimal Inhibitory Concentration (MIC) [2] [µg/mL] | Minimal Inhibitory Concentration (MIC) [3] [µg/mL] | Minimal Inhibitory Concentration (MIC) [4] [µg/mL] | Minimal Inhibitory Concentration (MIC) [5] [µg/mL] | Minimal Inhibitory Concentration (MIC) [6] [µg/mL] | Minimal Inhibitory Concentration (MIC) [7] [µg/mL] | Minimal Inhibitory Concentration (MIC) [8] [µg/mL] | Minimal Inhibitory Concentration (MIC) [9] [µg/mL] | Minimal Inhibitory Concentration (MIC) [10] [µg/mL] | Minimal Inhibitory Concentration (MIC) [11] [µg/mL] | Minimal Inhibitory Concentration (MIC) [12] [µg/mL] | Minimal Inhibitory Concentration (MIC) [13] [µg/mL]
CN(C)c1ccc(NC(=O)OCC2OC(OC3C(N)CC(N)C(OC4OC(CN)C(OC(=O)Nc5ccc(N(C)C)cc5)C(OC(=O)Nc5ccc(N(C)C)cc5)C4OC(=O)Nc4ccc(N(C)C)cc4)C3OC(=O)Nc3ccc(N(C)C)cc3)C(OC(=O)Nc3ccc(N(C)C)cc3)C(N)C2OC(=O)Nc2ccc(N(C)C)cc2)cc1.O=C(O)C(F)(F)F.O=C(O)C(F)(F)F.O=C(O)C(F)(F)F.O=C(O)C(F)(F)F.O=C(O)C(F)(F)F.O=C(O)C(F)(F)F.O=C(O)C(F)(F)F.O=C(O)C(F)(F)F.O=C(O)C(F)(F)F.O=C(O)C(F)(F)F.O=C(O)C(F)(F)F (stereo not shown) [Compound 7] | 16 | 32 | 16 | 32 | >256 | 256 | 256 | 256 | >256 | 256 | >256 | >256 | >256
NCCC(OC(=O)Nc1ccccc1)C(=O)NC1CC(N)C(OC2OC(CN)C(OC(=O)Nc3ccccc3)C(OC(=O)Nc3ccccc3)C2OC(=O)Nc2ccccc2)C(OC(=O)Nc2ccccc2)C1OC1OC(COC(=O)Nc2ccccc2)C(OC(=O)Nc2ccccc2)C(N)C1OC(=O)Nc1ccccc1.O=C(O)C(F)(F)F.O=C(O)C(F)(F)F.O=C(O)C(F)(F)F.O=C(O)C(F)(F)F (stereo not shown) [Compound 8] | 8 | 16 | 2 | 2 | 32 | 256 | 256 | 256 | >256 | 256 | 128 | 256 | 256
NCC1OC(OC2C(N)CC(N)C(OC(=O)Nc3ccccc3)C2OC(=O)Nc2ccccc2)C(N)C(OC(=O)Nc2ccccc2)C1OC(=O)Nc1ccccc1.O=C(O)C(F)(F)F.O=C(O)C(F)(F)F.O=C(O)C(F)(F)F.O=C(O)C(F)(F)F (stereo not shown) [Compound 10] | 16 | 16 | 8 | 8 | >256 | 32 | 32 | 32 | 128 | 128 | 64 | 256 | 64
NCC1OC(OC2C(N)CC(N)C(OCc3ccc(Cl)cc3)C2OC2OC(COCc3ccc(Cl)cc3)C(OC3OC(CN)C(OCc4ccc(Cl)cc4)C(OCc4ccc(Cl)cc4)C3N)C2OCc2ccc(Cl)cc2)C(N)C(OCc2ccc(Cl)cc2)C1OCc1ccc(Cl)cc1.O=C(O)C(F)(F)F.O=C(O)C(F)(F)F.O=C(O)C(F)(F)F.O=C(O)C(F)(F)F.O=C(O)C(F)(F)F.O=C(O)C(F)(F)F (stereo not shown) [Compound 12] | 64 | 64 | 32 | 64 | 128 | 128 | >128 | 64 | >128 | >128 | >128 | >128 | 128
CC(C)(C)c1ccc(COCC2OC(OC3C(OCc4ccc(C(C)(C)C)cc4)C(N)CC(N)C3OC3OC(CN)C(OCc4ccc(C(C)(C)C)cc4)C(OCc4ccc(C(C)(C)C)cc4)C3N)C(OCc3ccc(C(C)(C)C)cc3)C2OC2OC(CN)C(OCc3ccc(C(C)(C)C)cc3)C(OCc3ccc(C(C)(C)C)cc3)C2N)cc1.O=C(O)C(F)(F)F.O=C(O)C(F)(F)F.O=C(O)C(F)(F)F.O=C(O)C(F)(F)F.O=C(O)C(F)(F)F.O=C(O)C(F)(F)F (stereo not shown) [Compound 13] | 128 | 128 | 64 | 64 | 256 | 128 | 128 | 128 | 256 | 128 | >128 | >128 | >128
NCC1OC(OC2C(N)CC(N)C(OC3OC(COCc4ccccc4)C(OCc4ccccc4)C(N)C3OCc3ccccc3)C2OCc2ccccc2)C(OCc2ccccc2)C(OCc2ccccc2)C1OCc1ccccc1.O=C(O)C(F)(F)F.O=C(O)C(F)(F)F.O=C(O)C(F)(F)F.O=C(O)C(F)(F)F (stereo not shown) [Compound 15] | 8 | 8 | 4 | 8 | 32 | 32 | 32 | 16 | >64 | >64 | >64 | >64 | >64
NCC1OC(OC2C(N)CC(N)C(OC3OC(COCc4ccc(Cl)cc4)C(OCc4ccc(Cl)cc4)C(N)C3OCc3ccc(Cl)cc3)C2OCc2ccc(Cl)cc2)C(OCc2ccc(Cl)cc2)C(OCc2ccc(Cl)cc2)C1OCc1ccc(Cl)cc1.O=C(O)C(F)(F)F.O=C(O)C(F)(F)F.O=C(O)C(F)(F)F.O=C(O)C(F)(F)F (stereo not shown) [Compound 16] | 32 | 32 | 32 | 16 | 64 | 128 | 128 | 64 | >128 | >128 | >128 | >128 | >128
